Values quoted from earlier work in article PMC10928227, “Assessing biologic/toxicologic effects of extractables from plastic contact materials for advanced therapy manufacturing using cell painting assay and cytotoxicity screening” (Scientific Reports, 2024).
Read-outs that look alike come from different tables or passages of the source.

Assays:
[1] = cited from earlier work; for DNA damage and repair, Single Cell Gel Electrophoresis (comet) Assay: ref Yu F. Sasaki et. al., 2000, Critical Reviews in Toxicology,30(6),Pp.629-799
[2] = cited from earlier work; for Gene mutation, Mammalian Cell Gene Mutation Assay: T-lymphoma Cell Lines
[3] = Database Genotoxicity & Carcinogenicity ECVAM, ref EURL ECVAM genotoxicity and carcinogencity database, Madia F et al, 2020
[4] = in Vivo, Database Genotoxicity & Carcinogenicity ECVAM, ref EURL ECVAM genotoxicity and carcinogencity database, Madia F et al, 2020
[5] = in Vivo, Database Genotoxicity OASIS
[6] = Salmonella typhimurium, No Strain Information, in Vitro, Database: Genotoxicity OASIS, ref Mutation Research 584 (2005) 1-256, Kirkland et al.
[7] = Salmonella typhimurium, Strain TA 97, in Vitro, Database: Bacterial mutagenicity ISSSTY, ref CCRIS database,Toxnet databases (Romualdo Benigni)
[8] = Salmonella typhimurium, Strain TA 98, in Vitro, Database: Bacterial mutagenicity ISSSTY, ref CCRIS database,Toxnet databases (Romualdo Benigni)
[9] = Salmonella typhimurium, Strain TA 98, in Vitro, Database: Genotoxicity OASIS, ref P&G
[10] = Salmonella typhimurium, Strain TA 100, in Vitro, Database: Bacterial mutagenicity ISSSTY, ref CCRIS database,Toxnet databases (Romualdo Benigni)
[11] = Salmonella typhimurium, Strain TA 100, in Vitro, Database: Genotoxicity OASIS, ref P&G
[12] = Salmonella typhimurium, Strain TA 102, in Vitro, Database: Bacterial mutagenicity ISSSTY, ref CCRIS database,Toxnet databases (Romualdo Benigni)
[13] = Salmonella typhimurium, Strain TA 1535, in Vitro, Database: Bacterial mutagenicity ISSSTY, ref CCRIS database,Toxnet databases (Romualdo Benigni)
[14] = Salmonella typhimurium, Strain TA 1535, in Vitro, Database: Genotoxicity OASIS, ref P&G
[15] = Salmonella typhimurium, Strain TA 1537, in Vitro, Database: Bacterial mutagenicity ISSSTY, ref CCRIS database,Toxnet databases (Romualdo Benigni)
[16] = Salmonella typhimurium, Strain TA 1537, in Vitro, Database: Genotoxicity OASIS, ref P&G
[17] = in Vitro, Database Genotoxicity & Carcinogenicity ECVAM, ref EURL ECVAM genotoxicity and carcinogencity database, Madia F et al, 2020
[18] = in Vitro, Database Genotoxicity OASIS, ref Mutation Research 584 (2005) 1-256, Kirkland et al.
[19] = in Vitro, No Strain Information, Database Genotoxicity OASIS, ref Mutation Research 584 (2005) 1-256, Kirkland et al.
[20] = in Vitro, Salmonella typhimurium, Strain TA 97, Database Genotoxicity OASIS, ref P&G
[21] = in Vitro, Salmonella typhimurium, Strain TA 98, Database Genotoxicity OASIS, ref P&G
[22] = in Vitro, Salmonella typhimurium, Strain TA 100, Database Genotoxicity OASIS, ref P&G
[23] = in Vitro, Salmonella typhimurium, Strain TA 102, OECD Guideline 471, Database Genotoxicity OASIS, ref CCRIS database,Toxnet databases
[24] = in Vitro, Salmonella typhimurium, Strain TA 1535, Database Genotoxicity OASIS, ref P&G
[25] = in Vitro, Salmonella typhimurium, Strain TA 1537, Database Genotoxicity OASIS, ref P&G
[26] = in Vitro, Salmonella typhimurium, Strain TA 1538, Database Genotoxicity OASIS, ref P&G
[27] = in Vitro, Chinese hamster, Chinese Hamster Lung (CHL), Duration 24÷48 h, Database Genotoxicity OASIS, ref Sofuni, T., Ed. (1998). Data Book of Chromosomal Aberration Test In Vitro, Revised Edition

SMILES: Oc1ccccc1 [108-95-2]
- Chromosome aberration, in Vivo Mammalian Chromosome Aberration Test [1, 3]: Negative
- Chromosome aberration, Micronucleus Assay [1, 4]: Positive
- DNA damage and repair, COMET or Alkaline Elution [1, 4]: Positive
- Chromosome aberration, Micronucleus Assay ([1]; in Vivo, Database Genotoxicity OASIS, ref Ciranni, R., Barale, & Marrazzini, A. (1988), Mutat Res, 208, 61-67): Negative
- DNA damage and repair, Single Cell Gel Electrophoresis (comet) Assay [1, 5]: Positive
- Gene mutation, Bacterial Reverse Mutation Assay (e.g. Ames Test) [2, 6]: Negative
- Gene mutation, Bacterial Reverse Mutation Assay (e.g. Ames Test) [2, 7]: Negative
- Gene mutation, Bacterial Reverse Mutation Assay (e.g. Ames Test) [2, 8]: Negative
- Gene mutation, Bacterial Reverse Mutation Assay (e.g. Ames Test) [2, 9]: Negative
- Gene mutation, Bacterial Reverse Mutation Assay (e.g. Ames Test) [2, 10]: Negative
- Gene mutation, Bacterial Reverse Mutation Assay (e.g. Ames Test) [2, 11]: Negative
- Gene mutation, Bacterial Reverse Mutation Assay (e.g. Ames Test) [2, 12]: Negative
- Gene mutation, Bacterial Reverse Mutation Assay (e.g. Ames Test) ([2]; Salmonella typhimurium, Strain TA 104, in Vitro, Database: Bacterial mutagenicity ISSSTY, ref CCRIS database,Toxnet databases (Romualdo Benigni)): Negative
- Gene mutation, Bacterial Reverse Mutation Assay (e.g. Ames Test) [2, 13]: Negative
- Gene mutation, Bacterial Reverse Mutation Assay (e.g. Ames Test) [2, 14]: Negative
- Gene mutation, Bacterial Reverse Mutation Assay (e.g. Ames Test) [2, 15]: Negative
- Gene mutation, Bacterial Reverse Mutation Assay (e.g. Ames Test) [2, 16]: Negative
- Gene mutation, Bacterial Reverse Mutation Assay (e.g. Ames Test) ([2]; Salmonella typhimurium, Strain TA 7001, in Vitro, Database: Bacterial mutagenicity ISSSTY, ref CCRIS database,Toxnet databases (Romualdo Benigni)): Negative
- Gene mutation, Bacterial Reverse Mutation Assay (e.g. Ames Test) ([2]; Salmonella typhimurium, Strain TA 7002, in Vitro, Database: Bacterial mutagenicity ISSSTY, ref CCRIS database,Toxnet databases (Romualdo Benigni)): Negative
- Gene mutation, Bacterial Reverse Mutation Assay (e.g. Ames Test) ([2]; Salmonella typhimurium, Strain TA 7003, in Vitro, Database: Bacterial mutagenicity ISSSTY, ref CCRIS database,Toxnet databases (Romualdo Benigni)): Negative
- Gene mutation, Bacterial Reverse Mutation Assay (e.g. Ames Test) ([2]; Salmonella typhimurium, Strain TA 7004, in Vitro, Database: Bacterial mutagenicity ISSSTY, ref CCRIS database,Toxnet databases (Romualdo Benigni)): Negative
- Gene mutation, Bacterial Reverse Mutation Assay (e.g. Ames Test) ([2]; Salmonella typhimurium, Strain TA 7005, in Vitro, Database: Bacterial mutagenicity ISSSTY, ref CCRIS database,Toxnet databases (Romualdo Benigni)): Negative
- Gene mutation, Bacterial Reverse Mutation Assay (e.g. Ames Test) ([2]; Salmonella typhimurium, Strain TA 7006, in Vitro, Database: Bacterial mutagenicity ISSSTY, ref CCRIS database,Toxnet databases (Romualdo Benigni)): Negative
- Genetic Toxicity, Gene mutation (Bacterial Reverse Mutation Assay, e.g. Ames Test) ([2]; Salmonella typhimurium, strain TA 100, in Vitro, scale Gene mutation I, ref CCRIS database, Toxnet databases, Database: Bacterial mutagenicity ISSSTY (Romualdo Benigni, 2011)): Negative
- Chromatids exchanges/ recombination, Sister Chromatid Exchange (SCE) [2, 17]: Positive
- Chromosome aberration, Micronucleus Assay [2, 17]: Positive
- DNA damage and repair, DNA Adducts [2, 17]: Positive
- Gene mutation, Bacterial Reverse Mutation Assay (e.g. Ames Test) [2, 17]: Negative
- Gene mutation, Mammalian Cell Gene Mutation (MLA HPRT) [2, 17]: Positive
- Gene mutation, in Vitro Mammalian Cell Micronucleus Test [2, 18]: Positive
- Chromosome aberration, in Vitro Mammalian Chromosome Aberration Test [2, 19]: Positive
- Gene mutation, Bacterial Reverse Mutation Assay (e.g. Ames Test) [2, 20]: Negative
- Gene mutation, Bacterial Reverse Mutation Assay (e.g. Ames Test) [2, 21]: Negative
- Gene mutation, Bacterial Reverse Mutation Assay (e.g. Ames Test) [2, 22]: Negative
- Gene mutation, Bacterial Reverse Mutation Assay (e.g. Ames Test) [2, 23]: Negative
- Gene mutation, Bacterial Reverse Mutation Assay (e.g. Ames Test) [2, 24]: Negative
- Gene mutation, Bacterial Reverse Mutation Assay (e.g. Ames Test) [2, 25]: Negative
- Gene mutation, Bacterial Reverse Mutation Assay (e.g. Ames Test) [2, 26]: Negative
- Gene mutation, Mammalian Cell Gene Mutation Assay [2, 18]: Positive
- Genetic Toxicity, unscheduled DNA synthesis (UDS in Vitro) ([2]; in Vitro, scale Mutagenicity I (ECVAM), ref EURL ECVAM genotoxicity and carcinogencity database, Madia F et al, 2020): Positive

SMILES: Cc1cc(C(C)(C)C)c(O)c(C(C)(C)C)c1 [128-37-0]
- Chromosome aberration, in Vivo Mammalian Chromosome Aberration Test [1, 3]: Negative
- Chromosome aberration, Micronucleus Assay [1, 4]: Negative
- DNA damage and repair, COMET or Alkaline Elution [1, 4]: Positive
- DNA damage and repair, DNA Adducts [1, 4]: Negative
- Chromosome aberration, Micronucleus Assay ([1]; in Vivo, Database Genotoxicity OASIS, ref Bruce, W. R., & Heddle, J. A. (1979), Can. J. Genet. Cytol. 21, 319-334): Negative
- DNA damage and repair, Single Cell Gel Electrophoresis (comet) Assay [1, 5]: Negative
- Chromosome aberration, in Vitro Mammalian Chromosome Aberration Test ([2]; in Vitro, Chinese hamster, Chinese Hamster Lung (CHL), Duration 6÷18 h, Database Genotoxicity OASIS, ref Sofuni, T., Ed. (1998). Data Book of Chromosomal Aberration Test In Vitro, Revised Edition): Negative
- Chromosome aberration, in Vitro Mammalian Chromosome Aberration Test [2, 27]: Negative
- Chromosome aberration, in Vitro Mammalian Chromosome Aberration Test [2, 17]: Equivocal
- Gene mutation, Mammalian Cell Gene Mutation (MLA HPRT) [2, 17]: Positive
- Chromosome aberration, in Vitro Mammalian Chromosome Aberration Test [2, 19]: Negative
- Gene mutation, Mammalian Cell Gene Mutation Assay [2, 18]: Positive

SMILES: OCc1ccccc1 [100-51-6]
- Chromosome aberration, Micronucleus Assay [1, 4]: Negative
- DNA damage and repair, COMET or Alkaline Elution [1, 4]: Positive
- Chromosome aberration, Micronucleus Assay ([1]; in Vivo, Database Genotoxicity OASIS, ref Hayashi M., et al., Food Chem. Toxicol., 26(6), 487-500, 1988): Negative
- DNA damage and repair, Single Cell Gel Electrophoresis (comet) Assay [1, 5]: Negative
- Gene mutation, Bacterial Reverse Mutation Assay (e.g. Ames Test) [2, 6]: Negative
- Gene mutation, Bacterial Reverse Mutation Assay (e.g. Ames Test) [2, 7]: Negative
- Gene mutation, Bacterial Reverse Mutation Assay (e.g. Ames Test) [2, 8]: Negative
- Gene mutation, Bacterial Reverse Mutation Assay (e.g. Ames Test) [2, 9]: Negative
- Gene mutation, Bacterial Reverse Mutation Assay (e.g. Ames Test) [2, 10]: Negative
- Gene mutation, Bacterial Reverse Mutation Assay (e.g. Ames Test) [2, 11]: Negative
- Gene mutation, Bacterial Reverse Mutation Assay (e.g. Ames Test) [2, 12]: Negative
- Gene mutation, Bacterial Reverse Mutation Assay (e.g. Ames Test) [2, 13]: Negative
- Gene mutation, Bacterial Reverse Mutation Assay (e.g. Ames Test) [2, 14]: Negative
- Gene mutation, Bacterial Reverse Mutation Assay (e.g. Ames Test) [2, 15]: Negative
- Gene mutation, Bacterial Reverse Mutation Assay (e.g. Ames Test) [2, 16]: Negative
- Chromosome aberration, in Vitro Mammalian Chromosome Aberration Test ([2]; in Vitro, Chinese hamster, CHO Cells, Database Genotoxicity OASIS, ref ECHA, Registration dossier): Positive
- Chromosome aberration, in Vitro Mammalian Chromosome Aberration Test [2, 27]: Negative
- Chromosome aberration, Micronucleus Assay [2, 17]: Negative
- Chromosome aberration, in Vitro Mammalian Chromosome Aberration Test [2, 17]: Negative
- Gene mutation, Bacterial Reverse Mutation Assay (e.g. Ames Test) [2, 17]: Negative
- Gene mutation, Mammalian Cell Gene Mutation (MLA HPRT) [2, 17]: Inadequate
- Chromosome aberration, in Vitro Mammalian Chromosome Aberration Test [2, 19]: Positive
- Gene mutation, Bacterial Reverse Mutation Assay (e.g. Ames Test) ([2]; in Vitro, Salmonella typhimurium, No Strain Information, Database Genotoxicity OASIS, ref Journal of Medicinal Chemistry 48 (1), pp. 312-32, 25, Kazius J, McGuire R., Bursi R): Negative
- Gene mutation, Bacterial Reverse Mutation Assay (e.g. Ames Test) [2, 20]: Negative
- Gene mutation, Bacterial Reverse Mutation Assay (e.g. Ames Test) [2, 21]: Negative
- Gene mutation, Bacterial Reverse Mutation Assay (e.g. Ames Test) [2, 22]: Negative
- Gene mutation, Bacterial Reverse Mutation Assay (e.g. Ames Test) [2, 23]: Negative
- Gene mutation, Bacterial Reverse Mutation Assay (e.g. Ames Test) [2, 24]: Negative
- Gene mutation, Bacterial Reverse Mutation Assay (e.g. Ames Test) [2, 25]: Negative
- Gene mutation, Bacterial Reverse Mutation Assay (e.g. Ames Test) [2, 26]: Negative
- Gene mutation, Mammalian Cell Gene Mutation Assay [2, 18]: Positive
